Measured values published in paper PMC12111648, “New Dimethoxyaryl-Sesquiterpene Derivatives with Cytotoxic Activity Against MCF-7 Breast Cancer Cells: From Synthesis to Topoisomerase I/II Inhibition and Cell Death Mechanism Studies” (International Journal of Molecular Sciences, 2025).
Entries after “also recorded” stand apart in the source; their conditions may differ. Where two headings read alike, the source gives them in different places.

Key:
MCF-7 cells [1] = test: MTT cytotoxicity assay on MCF-7 cells; assay type: cell-based, human; settings: for IC50: Homo sapiens, MCF7, MTT, 48 h incubation, IC50 ± SD, three experiments in triplicate; for Selectivity Index (SI): SI = IC50 on MCF-10 cells/IC50 on MCF-7 cells
Method: (§1) In this study, we wondered whether semi-synthetic compounds have potential antitumoral properties against BC. Therefore, we were interested in investigating the effect of the compounds on the MCF-7 cell line. Firstly, we studied the effect on cell viability using a colorimetric MTT assay, which was performed to quantify the cytotoxic activity; each compound was evaluated at different concentrations (500−100−20−4−0.8−0.16−0.032−0 µM). Daunorubicin was also used as a positive control for comparison with a reference drug. […] Although the MCF-10 cell line provides a useful selectivity model, it may not fully represent the varying sensitivities of different normal cell types within a multicellular organism. The SI value indicates the ratio of toxicity in mammalian host cells to that in a tumoral cell. The data obtained in response to different concentrations of compounds were used to calculate the IC50 and corresponding SI values, as shown in Table 1.
(§2) The American Type Culture Collection (Rockville, MD, USA) supplied the following experimental cell lines: MCF-7, a human breast cancer cell line, and MCF-10A, a human epithelial breast cell line (ATCC N° CRL-10317). Both cell lines were grown in DMEM-F12 medium containing 10% FCS, 100 U/mL penicillin, 100 μg/mL streptomycin, and 1 mM glutamine. The cells were seeded at a concentration of 100 μL per well at a plating density of 3 × 10^3 cells/well and incubated for 24 h at 37 °C under 5% humidified CO2 to enable attachment. The cells were then treated with varying concentrations of synthesized compounds for […] under the same conditions. The compound stock solution was prepared in DMSO, and the final concentration of DMSO was kept at 0.1%. Control cultures were treated with only 1% ethanol.
(§3) Cells from the MCF-7 and MCF-10 lines were seeded into 96-well plates at a density of 1 × 10^4 per well. After 24 h, the compounds were added at increasing concentrations (500–100–20-4–0.8–0.16–0.032–0 µM), and the cells were incubated at 37 °C in a humidified 5% CO2/95% air mixture for 48 h. Following incubation, the cells were washed twice with PBS, and 100 μL of 0.5 mg/mL MTT solution was added to each well. After 2 h of incubation, the MTT solution was removed, and the formazan crystals were dissolved in 50 μL of DMSO per well. Absorbance was then measured at 570 nm using a microplate ELISA reader. IC50 values, determined from three independent experiments conducted in triplicate, were calculated using SigmaPlot® software (version 11.0). The selectivity index (SI) of each compound in each cell line was determined by calculating the ratio of the IC50 values for MCF-10 and cancer cell lines. Compounds were considered selective if SI values were equal to or greater than 3 [46].

MCF-7 cells [2] = test: Mitochondrial membrane potential (rhodamine 123, flow cytometry); assay type: cell-based, human; settings: MCF-7, compounds at respective IC50, 24 h
Method: To determine whether the toxic effects of selected sesquiterpenes (10c, 11c, 12c, 13c, and 14c) are due to the production of ROS and subsequent apoptosis, the mitochondrial membrane potential was measured. With this aim, a protocol using rhodamine 123 staining and flow cytometry was established to study the effect of the selected compounds [40]. The accumulation of rhodamine 123 in mitochondria is associated with the maintenance of the electrochemical gradient in mitochondria. Daunorubicin was used as a positive control (C+). The results are presented as the percentage of cells with increased mitochondrial membrane permeability.
Rhodamine 123 (Rho123), a positively charged dye that reacts to voltage changes and enters the mitochondria, was utilized to detect modifications in the mitochondrial membrane potential. The cells were exposed to specific compounds (IC50 values for each compound) for 24 h. Control cells that had not been treated were used as negative control, while cells treated with daunorubicin at a concentration of 1 µM served as the positive control. Following this, the cells were incubated with Rho123 (at a concentration of 1 µM) in darkness for an hour at 37 °C. Afterward, the medium was taken out, and the cells were washed with PBS. The cells were then dissociated using trypsin and collected through centrifugation for 10 min at 1500×g. The supernatant was thrown away, and the cell pellets were resuspended in PBS and analyzed using flow cytometry with the FL1 filter. The results are shown as the percentage of Rho123-stained cells.
Figure 5 The effect of the compound’s treatment on mitochondrial membrane potential. […] The data represent the means ± S.D. of at least three experiments with triplicate samples.

[3] = tested on: caspases-3/7 in MCF-7 cells; test: Caspase-Glo 3/7 assay; assay type: cell-based, human; settings: MCF-7, 50 μM, 24 h, versus control
Method: Since ROS levels were increased in the MCF-7 cancer cell line in response to the compounds, it is important to determine whether this effect is associated with the onset of apoptotic cell death. […] Cells were treated with the selected compounds at 50 μM for 24 h, incubated in situ with the Caspase-Glo 3/7 marker assay, and then analyzed in a luminometer.
The activity of caspase 3/7 in MCF-7 cells treated with the compounds was determined using a Caspase-Glo-3/7 Assay kit from Promega (UK). This assay is a homogenous and luminescent method that measures the activity of caspase-3 and -7, which are essential for apoptosis. MCF-7 cells (1 × 10^4 cells per well) were seeded in a 96-well plate and incubated overnight. The cells were then treated for 24 h with the compounds (50 µM) and a blank as a control. After treatment, the Caspase-Glo® 3/7 reagent was prepared according to the manufacturer’s instructions. Specifically, 100 μL of the reagent was added to 100 μL of culture medium containing the treated cells in each well, and the mixture was incubated for 1 h at room temperature in the dark. Luminescence was then measured using a luminometer (Berthold Sirius Single Tube Luminometer). The fold change in caspase activity was calculated by expressing the average luminescence of each treatment as a fold change with respect to the average luminescence of the negative control.
Figure 6 The effect of the compounds on caspases-3/7 activity in cells from the human breast cancer cell line MCF-7. Caspases-3/7 activity was determined in MCF-7 cells following treatment with the compounds (50 μM) for 24 h. The data are reported as the ratio of activity in treated cells vs. the control (1% ethanol), which were arbitrarily assigned a unitary value. * p < 0.05 versus control cells (Ctrl). The data are reported as the mean values ± S.D. of three different experiments with samples in triplicate.

MCF-7 cells [4] = test: Intracellular ROS generation (DCFH2-DA, flow cytometry); assay type: cell-based, human; settings: MCF-7, compounds at respective IC50, 24 h, versus control
Method: An increase in intracellular ROS may be one of the factors that contribute to the cytotoxicity of certain compounds in cancer cell lines. In fact, ROS and mitochondrial damage are often associated with the induction of cell death. […] DCF fluorescence was then measured by flow cytometry. The difference in the percentage of DCF-positive cells between treated and control cells was used to indicate an increase in intracellular ROS, as shown in Figure 4.
Reactive oxygen species (ROS) production was measured using flow cytometry. Cells were treated with compounds (each with respective IC50 values) for 24 h, with untreated cells serving as the negative control and cells treated with 1 µM daunorubicin as the positive control. Following the treatment, intracellular ROS levels were visualized after incubation with 2′,7′-dichlorodihydro-fluorescein diacetate (DCFH2-DA) at a final concentration of 10 μM for the last 30 min of the treatment period. After incubation, the cells were washed with PBS, trypsinized, and centrifuged, and the resulting pellet was resuspended in PBS and immediately examined by flow cytometry.
Figure 4 The effect of the compound’s treatment on intracellular ROS generation. Cells were treated with compounds (respective IC50 values for each compound for 24 h), and intracellular ROS levels were determined in the human cancer cell line MCF-7 by flow cytometry using dichloro-fluorescein diacetate (DCFH2-DA). * p < 0.05 versus control cells (Ctrl). The data represent the means ± S.D. of at least three experiments with triplicate samples.

MCF-10 cells [5] = test: MTT cytotoxicity assay on non-tumoral MCF-10 cells; assay type: cell-based, human; settings: Homo sapiens, MCF10, 48 h incubation, IC50 ± SD, three experiments in triplicate
Method: as §1, §2, §3

MCF-7 cells [6] = settings: cited from earlier work
human topoisomerase II = test: TOP2 DNA relaxation / plasmid linearization assay; assay type: biochemical; settings: 20 μM
Method: The ability to relax DNA conformations is a central function of topoisomerase enzymes. Several studies have associated some proapoptotic compounds with the ability to inhibit topoisomerase enzymes. The ability of the selected compounds to inhibit TOP1 or TOP2 activity was determined. In this experiment, daunorubicin was used as a positive control for TOP1/2 inhibition, as previously reported. […] It is important to note the potential for cardiotoxicity associated with some TOP2 inhibitors, which highlights the relevance of assessing compound 14c’s interaction with TOP2B. […] Future studies should include assays to evaluate the specific activity of 14c against both TOP2A and TOP2B to provide a more comprehensive safety profile, as isoform-selective TOP2 inhibitors may offer a therapeutic advantage by reducing adverse effects.
Topoisomerase II-mediated DNA cleavage was assessed using a plasmid linearization assay adapted from previously described methods. Supercoiled plasmid DNA (200 ng final concentration) was incubated with purified human topoisomerase II (10 U) in the presence or absence of test agents or a positive control. Reactions were carried out in a total volume of 20 μL, composed of 2 μL of 10× topoisomerase II reaction buffer, an appropriate volume of compound or control, and nuclease-free water. ATP (final concentration adjusted from a 20 mM stock) was freshly added to the reaction buffer immediately prior to use. Reactions were initiated by the addition of topoisomerase II and incubated at 37 °C for 30 min. To terminate the reactions, 2 μL of 10% SDS was added directly to the tubes while still in the 37 °C water bath, followed by the addition of 1.5 μL of 250 mM tetrasodium EDTA (pH 8.0) and 2 μL of proteinase K solution (0.8 mg/mL). […]
Figure 7 The effect of sesquiterpene aryl esters on TOP1- and TOP2-induced DNA relaxation was assessed. (A) The TOP1 inhibition assay evaluated the compounds (10c, 11c, 12c, 13c, and 14c) at a concentration of 20 μM in a DNA relaxation assay. […]

MCF-10 cells [7] = tested on: MCF-10 cells; design: method as in PMID 25412045; settings: reference drug; cited from earlier work

Row | mitochondrial membrane permeability (MCF-7 cells [2]) | Compound | IC50 (MCF-7 cells [1]) [µM] | Selectivity Index (SI) (MCF-7 cells [1]) | caspases-3/7 activity [3] | intracellular ROS levels (DCF fluorescence) (MCF-7 cells [4]) | IC50 (MCF-10 cells [5]) [µM] | cytotoxicity of the base sesquiterpene system (MCF-7 cells [6]; as previously reported by our group) | inhibition of TOP2-induced DNA relaxation (human topoisomerase II) | IC50 (MCF-7 cells [6]; reference drug) [µM] | IC50 (MCF-10 cells [7]) [µM]
1 | did not increase | COc1ccc(C(=O)[C@H]2C(C)=CCC3C(C)(C)CCC[C@@]32C)cc1OC (stereo partly drawn) [Compound 12c, (3,4-Dimethoxyphenyl)((1S,8aS)-2,5,5,8a-tetramethyl-1,4,4a,5,6,7,8,8a-octahydronaphthalen-1-yl)methanone] | 30.1 ± 6.6 | 4.3 | considerably enhanced | significantly increased | 131 ± 29.3 |  |  |  | 
2 | did not increase | COc1ccc([C@@H](O)[C@H]2C(C)=CCC3C(C)(C)CCC[C@@]32C)cc1OC (stereo partly drawn) [Compound 10c, (1S)-(3,4-Dimethoxyphenyl)((1S,8aS)-2,5,5,8a-tetramethyl-1,4,4a,5,6,7,8,8a-octahydronaphthalen-1-yl) methanol] | 25.1 ± 2.2 | 9.9 | considerably enhanced | significantly increased | 248 ± 42.3 |  |  |  | 
3 |  | CC1=CC[C@H]2C(C)(C)CCC[C@]2(C)[C@H]1CO [(-)-drimenol] |  |  |  |  |  | inactive |  |  | 
4 |  | COc1cccc2c1C(=O)c1c(O)c3c(c(O)c1C2=O)C[C@@](O)(C(C)=O)C[C@@H]3O[C@H]1C[C@H](N)[C@H](O)[C@H](C)O1 [Daunorubicin, reference compound] |  | 28 |  |  |  |  | modified the TOP2-induced DNA relaxation pattern | 0.33 ± 0.02 | 9.32 ± 1.01
5 | did not increase | COc1ccc(C[C@H]2C(C)=CCC3C(C)(C)CCC[C@@]32C)cc1OC (stereo partly drawn) [Compound 11c, (4aS,5S)-5-(3,4-Dimethoxybenzyl)-1,1,4a,6-tetramethyl-1,2,3,4,4a,5,8,8a-octahydronaphthalenene] | 13.5 ± 1.8 | 6.5 | considerably enhanced | significantly increased; also recorded: most effective | 87.7 ± 17.8 |  |  |  | 
